The data set deals with Multidrug resistance-associated protein 1 (Homo sapiens, UniProt P33527). Nature of the data set: TP_TRANSPORTER: drug sensitivity in MRP1-expressing NIH/3T3 cells. Format: functional, cell-based. The conditions noted are these: mouse, nih3t3.

SMILES strings stand for the structures. Numbered stars: 1 amine (or outer) side, 2 acyl side, 3 side chain; on linkers, the order of the positions; unused ones are H or OH. Bridge positions count the residues as written; N and C are the ends. Square brackets hold non-standard residues; d marks the D form. Peptide text beside a SMILES is read from it. I, II: the chains in the order shown. Actinocin(9to1) = Cc1c2oc3c(C)ccc(C(=O)[*:1])c3nc-2c(C(=O)[*:2])c(N)c1=O; NMeV = CN[C@H](C(=O)O)C(C)C; Sar = CNCC(=O)O

Chain of Multidrug resistance-associated protein 1 (P33527 whole entry): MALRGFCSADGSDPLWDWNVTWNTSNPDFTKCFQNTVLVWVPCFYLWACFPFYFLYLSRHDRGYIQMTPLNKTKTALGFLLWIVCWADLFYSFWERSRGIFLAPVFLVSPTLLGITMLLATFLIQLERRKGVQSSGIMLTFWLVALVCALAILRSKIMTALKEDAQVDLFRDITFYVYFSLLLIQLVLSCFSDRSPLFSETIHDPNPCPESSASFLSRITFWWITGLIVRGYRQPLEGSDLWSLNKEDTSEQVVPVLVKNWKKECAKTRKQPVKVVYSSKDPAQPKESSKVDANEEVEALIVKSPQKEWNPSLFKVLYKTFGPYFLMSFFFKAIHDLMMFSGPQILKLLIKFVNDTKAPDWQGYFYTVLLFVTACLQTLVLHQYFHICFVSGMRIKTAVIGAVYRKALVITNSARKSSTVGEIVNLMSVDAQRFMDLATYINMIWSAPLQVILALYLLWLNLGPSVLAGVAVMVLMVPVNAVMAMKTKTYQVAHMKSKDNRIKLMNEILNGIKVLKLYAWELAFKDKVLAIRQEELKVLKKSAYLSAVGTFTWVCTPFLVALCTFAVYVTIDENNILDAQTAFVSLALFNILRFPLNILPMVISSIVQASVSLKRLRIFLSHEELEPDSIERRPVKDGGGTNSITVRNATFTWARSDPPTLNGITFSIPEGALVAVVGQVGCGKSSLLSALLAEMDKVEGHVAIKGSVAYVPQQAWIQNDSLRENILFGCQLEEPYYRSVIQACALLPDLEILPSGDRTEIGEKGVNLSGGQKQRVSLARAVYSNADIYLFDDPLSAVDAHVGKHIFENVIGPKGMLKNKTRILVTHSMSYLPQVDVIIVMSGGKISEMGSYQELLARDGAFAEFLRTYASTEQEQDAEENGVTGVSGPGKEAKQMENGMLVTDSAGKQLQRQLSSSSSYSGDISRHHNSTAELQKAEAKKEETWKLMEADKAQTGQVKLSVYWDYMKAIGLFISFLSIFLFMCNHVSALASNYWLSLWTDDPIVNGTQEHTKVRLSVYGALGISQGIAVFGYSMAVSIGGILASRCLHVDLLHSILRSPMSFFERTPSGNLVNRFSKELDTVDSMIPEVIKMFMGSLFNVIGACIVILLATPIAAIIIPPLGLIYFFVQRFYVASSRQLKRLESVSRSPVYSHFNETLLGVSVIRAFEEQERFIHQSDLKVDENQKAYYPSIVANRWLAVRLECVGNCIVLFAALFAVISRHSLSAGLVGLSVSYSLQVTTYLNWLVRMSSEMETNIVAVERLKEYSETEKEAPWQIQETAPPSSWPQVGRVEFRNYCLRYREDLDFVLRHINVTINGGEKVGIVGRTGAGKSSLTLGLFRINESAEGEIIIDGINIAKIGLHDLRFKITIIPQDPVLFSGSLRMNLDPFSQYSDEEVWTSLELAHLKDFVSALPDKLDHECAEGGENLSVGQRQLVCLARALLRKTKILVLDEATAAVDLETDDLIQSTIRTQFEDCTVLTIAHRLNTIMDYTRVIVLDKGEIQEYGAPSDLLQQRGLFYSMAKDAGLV

With `Cc1c2oc3c(C)ccc(C(=O)N[C@@H]4C(=O)N[C@H](C(C)C)C(=O)N5CCC[C@H]5C(=O)N(C)CC(=O)N(C)[C@@H](C(C)C)C(=O)O[C@@H]4C)c3nc-2c(C(=O)N[C@@H]2C(=O)N[C@H](C(C)C)C(=O)N3CCC[C@H]3C(=O)N(C)CC(=O)N(C)[C@@H](C(C)C)C(=O)O[C@@H]2C)c(N)c1=O` [DACTINOMYCIN] (I: T[dV]P[Sar][NMeV] / II: T[dV]P[Sar][NMeV]; ester I:1-I:C, II:1-II:C; linker I:N-II:N via Actinocin(9to1)), the Activity result was “substrate [+]”.
